From ChEMBL document CHEMBL5233219, “Diarylamides in anticancer drug discovery: A review of pre-clinical and clinical investigations” (Eur J Med Chem, 2020)

Experiments:
[1] = Half life in human; format: ADME
[2] = Tmax in human; format: ADME
[3] = Plasma concentration in mouse at 150 to 400 mg/kg, po administered twice daily; format: ADME, organism-based; details: in vivo, dose 150-400 mg/kg
[4] = Drug absorption in mouse at 400 mg/kg, po; format: ADME, organism-based; details: in vivo, read-out: Drug absorption
[5] = Inhibition of tyrosine kinase (unknown origin); parameters: species or system Homo sapiens
[6] = Plasma protein binding in mouse at 150 to 400 mg/kg, po administered twice daily; format: ADME, organism-based; details: dose 150-400 mg/kg, read-out: PPB (converted)
[7] = system: SCH; experiment: Antiproliferative activity against human SCH cells assessed as reduction in cell viability; format: functional, cell-based
[8] = AUC in mouse at 150 to 400 mg/kg, po administered twice daily; format: ADME, organism-based; parameters: route po; details: in vivo, dose 150-400 mg/kg
[9] = Oral bioavailability in mouse at 150 to 400 mg/kg administered twice daily; format: ADME, organism-based; details: in vivo, dose 150-400 mg/kg
[10] = Drug excretion in rat feces assessed as cumulative amount of unchanged drug excreted at 10 mg/kg, po; format: ADME, organism-based; details: faeces, read-out: Drug excretion
[11] = mouse, in vivo, po
Description: Volume of distribution in mouse at 150 to 400 mg/kg, po administered twice daily

[12] = Half life in mouse at 150 to 400 mg/kg, po administered twice daily; format: ADME, organism-based; details: in vivo, dose 150-400 mg/kg
[13] = system: HS27; experiment: Cytotoxicity against human HS27 cells; format: functional, cell-based
[14] = Cytotoxicity against human A375P cells; format: functional, cell-based
[15] = system: Panel NCI-60 (60 carcinoma cell lines); experiment: Antiproliferative activity against human Panel NCI-60 (60 carcinoma cell lines) assessed as reduction in cell viability at 10 uM; format: functional
[16] = Antiproliferative activity against human OVCAR assessed as reduction in cell viability; format: functional, cell-based
[17] = Antitumor activity against human OVCAR cells implanted in mouse assessed as tumor growth inhibition; format: functional
[18] = system: MCF7; experiment: Anticancer activity against human MCF7 cells assessed as inhibition of cell growth; format: functional; parameters: scale not given: the % may be the effect or the level left
[19] = system: MOLT-4; experiment: Anticancer activity against human MOLT-4 cells assessed as inhibition of cell growth; format: functional; parameters: scale not given: the % may be the effect or the level left
[20] = system: MDA-MB-468; experiment: Anticancer activity against human MDA-MB-468 cells assessed as inhibition of cell growth; format: functional; parameters: scale not given: the % may be the effect or the level left
[21] = Cytotoxicity against human HUVEC cells; format: toxicity, cell-based
[22] = Antiproliferative activity against human A375P cells; format: functional, cell-based
[23] = system: OVCAR-5; experiment: Antiproliferative activity against human OVCAR-5 cells assessed as reduction in cell viability; format: functional, cell-based
[24] = system: Panel NCI-60 (60 carcinoma cell lines); experiment: Antiproliferative activity against human Panel NCI-60 (60 carcinoma cell lines) assessed as reduction in cell viability; format: functional
[25] = Volume of distribution in mouse at 100 mg/kg, po administered once daily; format: ADME, organism-based; details: in vivo
[26] = Plasma protein binding in mouse at 100 mg/kg, po administered once daily; format: ADME, organism-based; details: read-out: PPB (converted)
[27] = Volume of distribution in human; format: ADME
[28] = Plasma concentration in mouse at 100 mg/kg, po administered once daily; format: ADME, organism-based; details: in vivo
[29] = AUC in mouse at 100 mg/kg, po administered once daily; format: ADME, organism-based; parameters: dose 100 mg/kg, route po; details: in vivo
[30] = Half life in mouse at 100 mg/kg, po administered once daily; details: in vivo
[31] = Oral bioavailability in mouse at 100 mg/kg administered once daily; format: ADME, organism-based; details: in vivo
[32] = molecular target: T1, Cytochrome P450 1A2 (Homo sapiens, UniProt P05177); experiment: Inhibition of CYP1A2 (unknown origin); format: ADME
T1 sequence (P05177 whole entry): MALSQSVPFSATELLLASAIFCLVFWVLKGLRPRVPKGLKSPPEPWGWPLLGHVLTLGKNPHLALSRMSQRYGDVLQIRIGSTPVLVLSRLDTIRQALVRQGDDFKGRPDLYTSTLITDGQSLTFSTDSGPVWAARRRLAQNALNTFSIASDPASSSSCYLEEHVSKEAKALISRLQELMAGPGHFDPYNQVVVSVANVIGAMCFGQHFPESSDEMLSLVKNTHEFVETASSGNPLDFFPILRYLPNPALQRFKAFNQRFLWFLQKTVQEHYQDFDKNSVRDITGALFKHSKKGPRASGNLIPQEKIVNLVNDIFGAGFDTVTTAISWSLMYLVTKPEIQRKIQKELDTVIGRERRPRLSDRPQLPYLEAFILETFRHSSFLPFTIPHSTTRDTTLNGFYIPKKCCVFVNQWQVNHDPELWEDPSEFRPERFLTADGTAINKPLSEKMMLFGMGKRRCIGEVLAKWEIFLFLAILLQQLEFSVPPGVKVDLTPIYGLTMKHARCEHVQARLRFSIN

[33] = Inhibition of tyrosine kinase (unknown origin) in human LNCaP-abl cells
[34] = Oral bioavailability in mouse; format: ADME, organism-based; details: in vivo
[35] = Cmax in female mouse plasma; format: ADME, cell-free
[36] = molecular target: Cytochrome P450 2D6 (Homo sapiens, UniProt P10635); experiment: Inhibition of CYP2D6 (unknown origin); format: ADME
Sequence of Cytochrome P450 2D6 (P10635 whole entry): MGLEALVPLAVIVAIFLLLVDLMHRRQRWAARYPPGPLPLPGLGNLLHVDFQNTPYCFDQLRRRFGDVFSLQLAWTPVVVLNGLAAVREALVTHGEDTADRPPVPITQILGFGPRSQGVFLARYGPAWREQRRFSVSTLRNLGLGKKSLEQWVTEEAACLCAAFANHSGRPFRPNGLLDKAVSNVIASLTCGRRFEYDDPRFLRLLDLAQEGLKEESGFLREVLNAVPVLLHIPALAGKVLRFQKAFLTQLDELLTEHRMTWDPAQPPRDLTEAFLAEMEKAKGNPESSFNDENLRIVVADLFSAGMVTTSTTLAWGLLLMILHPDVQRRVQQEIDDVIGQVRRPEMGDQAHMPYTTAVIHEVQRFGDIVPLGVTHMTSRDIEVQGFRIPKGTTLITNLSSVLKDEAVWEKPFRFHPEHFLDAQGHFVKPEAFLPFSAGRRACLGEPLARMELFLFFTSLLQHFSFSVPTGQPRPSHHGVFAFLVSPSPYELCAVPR

[37] = Plasma concentration in mouse at 400 to 600 mg/kg, po administered once daily; format: ADME, organism-based; details: in vivo, dose 400-600 mg/kg
[38] = Oral bioavailability in mouse at 400 to 600 mg/kg; format: ADME, organism-based; details: in vivo, dose 400-600 mg/kg
[39] = molecular target: Cytochrome P450 2C19 (Homo sapiens, UniProt P33261); experiment: Inhibition of CYP2C19 (unknown origin); format: ADME
Sequence of Cytochrome P450 2C19 (P33261 whole entry): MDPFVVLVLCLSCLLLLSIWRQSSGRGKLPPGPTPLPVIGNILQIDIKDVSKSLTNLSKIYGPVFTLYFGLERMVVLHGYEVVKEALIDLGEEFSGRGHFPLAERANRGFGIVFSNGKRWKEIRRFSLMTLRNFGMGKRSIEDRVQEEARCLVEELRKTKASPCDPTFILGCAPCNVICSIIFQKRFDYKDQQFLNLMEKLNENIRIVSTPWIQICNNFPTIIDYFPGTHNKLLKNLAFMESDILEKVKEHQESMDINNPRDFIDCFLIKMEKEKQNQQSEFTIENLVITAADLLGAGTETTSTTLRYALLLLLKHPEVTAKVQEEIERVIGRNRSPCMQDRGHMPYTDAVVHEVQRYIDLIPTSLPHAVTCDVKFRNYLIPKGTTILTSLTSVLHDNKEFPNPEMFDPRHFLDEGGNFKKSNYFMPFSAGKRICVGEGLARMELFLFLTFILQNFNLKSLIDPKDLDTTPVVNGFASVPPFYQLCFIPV

[40] = Cmax in mouse plasma; format: ADME, cell-free
[41] = AUC in mouse at 400 to 600 mg/kg, po administered once daily; format: ADME, organism-based; parameters: route po; details: in vivo, dose 400-600 mg/kg
[42] = Cmax in male mouse plasma; format: ADME, cell-free
[43] = system: Macrophage; experiment: Cytotoxicity against human Macrophage cells relative to control; format: functional
[44] = molecular target: T2, Macrophage colony-stimulating factor 1 receptor (Homo sapiens, UniProt P07333); experiment: Inhibition of FMS (unknown origin) relative to control; details: concentration not given here
T2 sequence (P07333 whole entry): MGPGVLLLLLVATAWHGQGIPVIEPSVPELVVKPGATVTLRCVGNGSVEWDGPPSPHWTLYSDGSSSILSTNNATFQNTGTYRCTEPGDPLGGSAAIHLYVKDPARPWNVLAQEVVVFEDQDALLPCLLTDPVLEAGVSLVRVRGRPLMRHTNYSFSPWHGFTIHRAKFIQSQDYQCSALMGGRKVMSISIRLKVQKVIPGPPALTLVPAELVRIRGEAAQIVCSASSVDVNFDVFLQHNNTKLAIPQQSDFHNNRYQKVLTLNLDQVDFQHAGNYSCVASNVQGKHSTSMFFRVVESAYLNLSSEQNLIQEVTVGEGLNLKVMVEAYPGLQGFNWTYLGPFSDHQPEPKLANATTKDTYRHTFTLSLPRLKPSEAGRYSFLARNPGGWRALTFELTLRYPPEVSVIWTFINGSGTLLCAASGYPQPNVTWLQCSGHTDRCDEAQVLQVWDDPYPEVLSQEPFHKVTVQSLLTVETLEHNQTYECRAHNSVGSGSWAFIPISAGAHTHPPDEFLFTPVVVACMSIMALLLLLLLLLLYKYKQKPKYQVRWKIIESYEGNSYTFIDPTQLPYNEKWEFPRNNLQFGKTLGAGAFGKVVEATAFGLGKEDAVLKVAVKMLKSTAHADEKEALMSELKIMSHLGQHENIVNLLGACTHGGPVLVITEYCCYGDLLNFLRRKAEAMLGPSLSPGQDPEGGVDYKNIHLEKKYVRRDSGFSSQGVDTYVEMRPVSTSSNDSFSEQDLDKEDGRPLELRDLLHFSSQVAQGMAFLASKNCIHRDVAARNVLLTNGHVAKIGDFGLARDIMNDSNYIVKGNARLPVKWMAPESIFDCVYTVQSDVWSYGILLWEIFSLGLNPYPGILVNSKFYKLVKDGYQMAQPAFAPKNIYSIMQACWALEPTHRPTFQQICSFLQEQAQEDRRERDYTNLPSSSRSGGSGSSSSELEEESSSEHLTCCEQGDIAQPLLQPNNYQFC

[45] = system: SK-OV-3; experiment: Antiproliferative activity against human SK-OV-3 cells assessed as inhibition of cell growth relative to control; format: functional; parameters: scale not given: the % may be the effect or the level left
[46] = molecular target: T2, Macrophage colony-stimulating factor 1 receptor; experiment: Inhibition of FMS (unknown origin)
[47] = system: OVCAR-3; experiment: Antiproliferative activity against human OVCAR-3 cells assessed as inhibition of cell growth; format: functional, cell-based
[48] = system: SK-OV-3; experiment: Antiproliferative activity against human SK-OV-3 cells assessed as inhibition of cell growth; format: functional, cell-based
[49] = system: T47D; experiment: Antiproliferative activity against human T47D cells assessed as inhibition of cell growth relative to control; format: functional; parameters: scale not given: the % may be the effect or the level left
[50] = system: DU-145; experiment: Antiproliferative activity against human DU-145 cells assessed as inhibition of cell growth; format: functional, cell-based
[51] = system: IGROV-1; experiment: Antiproliferative activity against human IGROV-1 cells assessed as inhibition of cell growth relative to control; format: functional; parameters: scale not given: the % may be the effect or the level left

In the case of `Cc1cn(-c2cc(NC(=O)c3ccc(C)c(Nc4nccc(-c5cccnc5)n4)c3)cc(C(F)(F)F)c2)cn1` [NILOTINIB], the half-life [1] is reported as 17 h, the Tmax [2] is reported as 3 h and the Cp [3] is reported as 445 ng/mL. The Fa [4] was 35%, the IC50 [5] was 188 nM and the fraction unbound [6] was 0.02. The IC50 [7] was 14600 nM, the AUC [8] was 11.9 ng·h/mL and the bioavailability [9] was 25%. It also gave a dose excreted [10] of 69%, a Vd [11] of 0.55 L/kg and a half-life [12] of 13 h.

With `CNC(=O)c1cc(Oc2ccc(NC(=O)Nc3ccc(Cl)c(C(F)(F)F)c3)cc2)ccn1` [SORAFENIB] the IC50 [13] was 7800 nM and the IC50 [14] was 95 nM.

In the case of `O=C(Nc1ccc(-n2ccc3c(NC(=O)c4ccccc4)ncnc32)cc1)Nc1cccc(Cl)c1Cl`, the Activity [15] is reported as 109.18%, the IC50 [16] is reported as 3670 nM and the TGI [17] is reported as 1800 nM.

Compound `COc1cc2cc3c(nc2cc1OC)CCN3Cc1ccc(NC(=O)c2ccc(Cl)c(C(F)(F)F)c2)cc1` has an Activity [18] of 84.97%, an Activity [19] of 43.19% and an Activity [20] of 87.13%.

In the case of `Cc1nc(Nc2ccc(NC(=O)c3cccc(Cl)c3)cc2)c2nc(-c3ccc(Cl)cc3)oc2n1`, the IC50 [21] is reported as 1310 nM.

`Cc1ccc(NC(=O)Nc2cc(F)cc(C(F)(F)F)c2)cc1Nc1cc(=O)[nH]c(N)n1` gave an IC50 [22] of 190 nM.

Work on `COc1ccc(-c2nn(-c3ccc(NC(=O)c4ccc(Cl)c(C(F)(F)F)c4)cc3)cc2-c2ccncc2)cc1Cl` yielded an IC50 [23] of 1330 nM and an Activity [24] of 103.16%.

In the case of `CCN1CCN(Cc2ccc(NC(=O)Nc3ccc(-n4ccc5c(NC(=O)c6ccccc6)nccc54)cc3)cc2C(F)(F)F)CC1`, the IC50 [13] is reported as 7800 nM and the IC50 [14] is reported as 100 nM.

In the case of `Cc1nc(Nc2ncc(C(=O)Nc3c(C)cccc3Cl)s2)cc(N2CCN(CCO)CC2)n1.O` [DASATINIB], the Vd [25] is reported as 2.052 L, the fraction unbound [26] is reported as 0.04 and the Vd [27] is reported as 2.05 L. It also gave a Cp [28] of 129 ng/mL, an AUC [29] of 48.8 ng·h/mL and a half-life [30] of 3 h. The bioavailability [31] was 14%.

With `Cc1ccc(NC(=O)c2ccc(CN3CCN(C)CC3)cc2)cc1Nc1nccc(-c2cccnc2)n1` [IMATINIB] the “inhibition (INH)” value [32] was 10%, the IC50 [33] was 188 nM and the bioavailability [34] was 98.3%. For the same compound, the Cmax [35] was 1080 ng/mL, the IC50 [5] was 30 nM and the IC50 [7] was 4700 nM. The “inhibition (INH)” value [36] was 10%, the Cp [37] was 3.7 ng/mL and the bioavailability [38] was 98.3%. For the same compound, the “inhibition (INH)” value [39] was 10%, the Cmax [40] was 1.9 ng/mL and the AUC [41] was 24800 ng·h/mL. It also gave a Cmax [42] of 921 ng/mL.

Work on `COc1ccc(-c2nc3c(Nc4ccc(NC(=O)c5cccc(Cl)c5)cc4)nc(C)nc3o2)cc1` yielded an IC50 [21] of 1280 nM.

`Cc1ccc(NC(=O)Nc2ccc(Cl)nc2)cc1Nc1cc(=O)[nH]c(N)n1` showed an IC50 [22] of 190 nM.

Work on `O=C(Nc1cccc(-n2ccc3c(NC(=O)c4ccccc4)nccc32)c1)c1ccc(N2CCOCC2)c(C(F)(F)F)c1` yielded an IC50 [13] of 300 nM, an Activity [43] of 52% and an inhibition [44] of 90%. It also gave an Activity [45] of 106.2%, an IC50 [46] of 30 nM and an IC50 [47] of 45 nM. The IC50 [48] was 3600 nM, the Activity [49] was 90% and the IC50 [50] was 98 nM. The Activity [51] was 90%.
